Test results published in patent US11744816B2, “Fixed dose combinations and formulations comprising ETC1002 and ezetimibe and methods of treating or reducing the risk of cardiovascular disease” (Esperion Therapeutics, Inc., priority 2015, dated 2023).
“Also recorded” adds a separate entry of the source.

Tests used:
[1] = tested on: hypercholesterolemic patients; experiment: Phase 2b double-blind trial: safety, treatment-emergent adverse events and laboratory abnormalities; conditions: for Most common AEs: ALT increased / Most common AEs: AST increased / Most common AEs: Arthralgia / Most common AEs: Back pain / Most common AEs: Blood CK increased / Most common AEs: Constipation / Most common AEs: Headache / Most common AEs: Myalgia / Most common AEs: Nasopharyngitis / Most common AEs: Upper respiratory tract infection / Most common AEs: Urinary tract infection / Treatment-emergent AEs: Any AE(s) / Treatment-emergent AEs: Discontinuation due to AE(s) / Treatment-emergent AEs: Serious AE(s) / Treatment-emergent AEs: Study drug-related AE(s) / Any muscle-related AE / Muscle-related AE leading to discontinuation / Muscle-related AEs: Muscle spasms / Muscle-related AEs: Muscular weakness / Muscle-related AEs: Musculoskeletal chest pain / Muscle-related AEs: Musculoskeletal stiffness / Muscle-related AEs: Myalgia / Muscle-related AEs: Pain in extremity / Muscle-related AEs: Sensation of heaviness / Muscle-related AEs: Musculoskeletal pain: 12 weeks; for Most common AEs: ALT increased / Most common AEs: AST increased / Most common AEs: Arthralgia / Most common AEs: Back pain / Most common AEs: Blood CK increased / Most common AEs: Constipation / Most common AEs: Headache / Most common AEs: Myalgia / Most common AEs: Nasopharyngitis / Most common AEs: Upper respiratory tract infection / Most common AEs: Urinary tract infection / Treatment-emergent AEs: Any AE(s) / Treatment-emergent AEs: Discontinuation due to AE(s) / Treatment-emergent AEs: Serious AE(s) / Treatment-emergent AEs: Study drug-related AE(s): safety population; for Myalgia, patients affected: entire study population
Method: The study population included both statin-tolerant and statin-intolerant participants. Statin intolerance was defined as the inability to tolerate ≥2 statins because of muscle-related symptoms such as pain, weakness, or cramping that began or increased during statin therapy and resolved on statin discontinuation. At least 1 statin must have been administered at the lowest approved daily dose, defined as rosuvastatin 5 mg, atorvastatin 10 mg, simvastatin 10 mg, lovastatin 20 mg, pravastatin 40 mg, fluvastatin 40 mg, or pitavastatin 2 mg. Treatment with less than the lowest approved daily dose of a statin (i.e., skipping days) was considered equivalent to not tolerating 1 statin at the lowest approved daily dose.
Patients underwent a 5-week washout of all lipid-regulating drugs and dietary supplements and abstained from these drugs and supplements throughout the study. Patients also underwent a 5-week patient-only-blinded placebo run-in during the screening period (week −5 to week 0). This single-blind placebo run-in period was used to eliminate patients with muscle-related AEs during placebo treatment. Patients reporting new or worsening, unexplained muscle-related AEs during this run-in period were excluded from the study.
Patients were stratified (1:1) by history of statin intolerance and randomized at week 0 in a 4:4:4:1:1 ratio to once-daily treatment with capsules containing ETC-1002 120 mg, ETC-1002 180 mg, EZE, ETC-1002 120 mg plus EZE, or ETC-1002 180 mg plus EZE.
The safety of ETC-1002 was assessed using treatment-emergent AEs; hematology, serum chemistry, and urinalysis laboratory values; physical examination findings, vital sign measurements, electrocardiogram (ECG) readings; weight; and ankle and waist circumference measurements. AEs were coded using the Medical Dictionary for Regulatory Activities version 16.0 and evaluated by the investigator for severity and relation to study drug. Muscle-related AEs were defined as those from the system organ class of musculoskeletal and connective tissue disorders, except for those that were not obviously muscle related Terms included in the muscle-related AFE analysis were selected from this system organ class after database lock and before unblinding.
Safety analyses were performed on the safety population, which included randomized patients who received at least 1 dose of study drug. Baseline patient characteristics were summarized for the safety population by treatment group and statin-tolerance subgroup.
Muscle-related AEs also were summarized by statin-tolerance subgroup.

[2] = tested on: hypercholesterolemic patients; experiment: Phase 2b double-blind trial: percent changes from baseline to week 12 in lipids and CRP; type: in vivo, human; conditions: for Percent change from baseline to week 12 in Apolipoprotein A-I / Percent change from baseline to week 12 in Apolipoprotein B / Percent change from baseline to week 12 in HDL particle number / Percent change from baseline to week 12 in HDL-C / Percent change from baseline to week 12 in LDL particle number / Percent change from baseline to week 12 in LDL-C / Percent change from baseline to week 12 in Non-HDL-C / Percent change from baseline to week 12 in Total cholesterol / Percent change from baseline to week 12 in VLDL particle number: 12 weeks, mITT; for Percent change from baseline to week 12 in Apolipoprotein A-I / Percent change from baseline to week 12 in Apolipoprotein B / Percent change from baseline to week 12 in HDL particle number / Percent change from baseline to week 12 in HDL-C / Percent change from baseline to week 12 in LDL particle number / Percent change from baseline to week 12 in LDL-C / Percent change from baseline to week 12 in Non-HDL-C / Percent change from baseline to week 12 in Total cholesterol: LS mean ± SE; for Percent change from baseline to week 12 in VLDL particle number: median (interquartile range)
Method: LDL-C was calculated using the Friedewald equation.
The primary endpoint was the percent change from baseline to week 12 in calculated LDL-C in patients treated with ETC-1002 monotherapy versus those treated with EZE alone. Secondary endpoints included the dose-response relationship between ETC-1002 and the percent change in LDL-C from baseline to week 12, the percent change in LDL-C from baseline to week 12 in patients treated with ETC-1002 plus EZE versus those treated with EZE alone, and the percent change from baseline to week 12 for all treatment groups in LDL particle number, apolipoprotein B, total cholesterol, non-high-density lipoprotein cholesterol (non-HDL-C), HDL-C, HDL particle number, apolipoprotein A-I, triglycerides, very-low-density lipoprotein (VLDL) particle number, and high-sensitivity C-reactive protein (CRP). Lipoprotein particle number was measured using nuclear magnetic resonance […].
An analysis of covariance was used to compare each ETC-1002 treatment group with EZE monotherapy for each of the efficacy endpoints. The primary model included the effects of treatment and statin intolerance and the baseline value as a covariate. Baseline was defined as the mean of values from weeks −1 and 0 for LDL-C, non-HDL-C, total cholesterol, HDL-C, and triglycerides. For all other lipid and biomarker measures, baseline was defined as the last value before the first dose of study drug. Missing values at week 12 were imputed using the last-observation-carried-forward procedure. When LDL-C could not be calculated (i.e., triglycerides >400 mg/dL), beta-quantification measurements were used to determine LDL-C values. Least-squares (LS) means and standard errors were obtained for each treatment group; differences in LS means and p-values were obtained for the treatment comparisons. Graphical methods (e.g., normal probability plot and histogram of residuals, plot of residuals vs. predicted values) or analytical methods (e.g., Shapiro-Wilk test), or both, were used to assess the model assumptions. Because of departures from normality observed in the parameters of triglycerides, CRP, and VLDL particle number, nonparametric analyses were performed for these measures, with p-values obtained from the Wilcoxon rank-sum test and median values presented.
Percent changes from baseline in LDL-C also were summarized by statin-tolerance subgroup. To assess the dose-response relationship for ETC-1002 monotherapy, the primary analysis of covariance model was used for the comparison of the ETC-1002 120 mg and ETC-1002 180 mg. Statistical testing of the efficacy endpoints was 2-sided and conducted at the 5% level of significance with no adjustment for multiple comparisons.

[3] = ETC-1002 120 mg once daily, statin-intolerant patients
[4] = ETC-1002 120 mg once daily, statin-tolerant patients
[5] = ETC-1002 180 mg once daily, statin-intolerant patients
[6] = ETC-1002 180 mg once daily, statin-tolerant patients

CC(C)(CCCCCC(O)CCCCCC(C)(C)C(=O)O)C(=O)O [ETC-1002, 8-hydroxy-2,2,14,14 tetramethylpentadecanedioic acid]
Alanine aminotransferase or aspartate aminotransferase, or both, increased >3 times the upper limit of normal at any measurement ([1]; ETC-1002 120 mg): 1 patients
Serious AEs reported (events) ([1]; ETC-1002 120 mg): hemothorax; also recorded: sudden death
Most common AEs: ALT increased ([1]; ETC-1002 120 mg once daily): 0 n (%)
Most common AEs: AST increased ([1]; ETC-1002 120 mg once daily): 0 n (%)
Most common AEs: Arthralgia ([1]; ETC-1002 120 mg once daily): 4 (4%) n (%)
Most common AEs: Back pain ([1]; ETC-1002 120 mg once daily): 1 (1%) n (%)
Most common AEs: Blood CK increased ([1]; ETC-1002 120 mg once daily): 1 (1%) n (%)
Most common AEs: Constipation ([1]; ETC-1002 120 mg once daily): 3 (3%) n (%)
Most common AEs: Headache ([1]; ETC-1002 120 mg once daily): 3 (3%) n (%)
Most common AEs: Myalgia ([1]; ETC-1002 120 mg once daily): 3 (3%) n (%)
Most common AEs: Nasopharyngitis ([1]; ETC-1002 120 mg once daily): 3 (3%) n (%)
Most common AEs: Upper respiratory tract infection ([1]; ETC-1002 120 mg once daily): 6 (6%) n (%)
Most common AEs: Urinary tract infection ([1]; ETC-1002 120 mg once daily): 0 n (%)
Treatment-emergent AEs: Any AE(s) ([1]; ETC-1002 120 mg once daily): 50 (51%) n (%)
Treatment-emergent AEs: Discontinuation due to AE(s) ([1]; ETC-1002 120 mg once daily): 3 (3%) n (%)
Treatment-emergent AEs: Serious AE(s) ([1]; ETC-1002 120 mg once daily): 2 (2%) n (%)
Treatment-emergent AEs: Study drug-related AE(s) ([1]; ETC-1002 120 mg once daily): 13 (13%) n (%)
Any muscle-related AE [1, 3]: 7 (14%) n (%)
Muscle-related AE leading to discontinuation [1, 3]: 1 (2%) n (%)
Muscle-related AEs: Muscle spasms [1, 3]: 3 (6%) n (%)
Muscle-related AEs: Muscular weakness [1, 3]: 2 (4%) n (%)
Muscle-related AEs: Musculoskeletal chest pain [1, 3]: 0 n (%)
Muscle-related AEs: Musculoskeletal stiffness [1, 3]: 0 n (%)
Muscle-related AEs: Myalgia [1, 3]: 2 (4%) n (%)
Muscle-related AEs: Pain in extremity [1, 3]: 1 (2%) n (%)
Muscle-related AEs: Sensation of heaviness [1, 3]: 0 n (%)
Any muscle-related AE [1, 4]: 1 (2%) n (%)
Muscle-related AE leading to discontinuation [1, 4]: 0 n (%)
Muscle-related AEs: Muscle spasms [1, 4]: 0 n (%)
Muscle-related AEs: Musculoskeletal pain [1, 4]: 0 n (%)
Muscle-related AEs: Myalgia [1, 4]: 1 (2%) n (%)
Myalgia, patients affected ([1]; ETC-1002 120 mg): 3%
Alanine aminotransferase or aspartate aminotransferase, or both, increased >3 times the upper limit of normal at any measurement ([1]; ETC-1002 180 mg): 2 patients
Serious AEs reported (events) ([1]; ETC-1002 180 mg): pancreatitis relapse
Most common AEs: ALT increased ([1]; ETC-1002 180 mg once daily): 0 n (%)
Most common AEs: AST increased ([1]; ETC-1002 180 mg once daily): 0 n (%)
Most common AEs: Arthralgia ([1]; ETC-1002 180 mg once daily): 1 (1%) n (%)
Most common AEs: Back pain ([1]; ETC-1002 180 mg once daily): 1 (1%) n (%)
Most common AEs: Blood CK increased ([1]; ETC-1002 180 mg once daily): 4 (4%) n (%)
Most common AEs: Constipation ([1]; ETC-1002 180 mg once daily): 1 (1%) n (%)
Most common AEs: Headache ([1]; ETC-1002 180 mg once daily): 2 (2%) n (%)
Most common AEs: Myalgia ([1]; ETC-1002 180 mg once daily): 1 (1%) n (%)
Most common AEs: Nasopharyngitis ([1]; ETC-1002 180 mg once daily): 5 (5%) n (%)
Most common AEs: Upper respiratory tract infection ([1]; ETC-1002 180 mg once daily): 6 (6%) n (%)
Most common AEs: Urinary tract infection ([1]; ETC-1002 180 mg once daily): 4 (4%) n (%)
Treatment-emergent AEs: Any AE(s) ([1]; ETC-1002 180 mg once daily): 55 (55%) n (%)
Treatment-emergent AEs: Discontinuation due to AE(s) ([1]; ETC-1002 180 mg once daily): 6 (6%) n (%)
Treatment-emergent AEs: Serious AE(s) ([1]; ETC-1002 180 mg once daily): 1 (1%) n (%)
Treatment-emergent AEs: Study drug-related AE(s) ([1]; ETC-1002 180 mg once daily): 18 (18%) n (%)
Any muscle-related AE [1, 5]: 6 (12%) n (%)
Muscle-related AE leading to discontinuation [1, 5]: 2 (4%) n (%)
Muscle-related AEs: Muscle spasms [1, 5]: 2 (4%) n (%)
Muscle-related AEs: Muscular weakness [1, 5]: 1 (2%) n (%)
Muscle-related AEs: Musculoskeletal chest pain [1, 5]: 1 (2%) n (%)
Muscle-related AEs: Musculoskeletal stiffness [1, 5]: 0 n (%)
Muscle-related AEs: Myalgia [1, 5]: 1 (2%) n (%)
Muscle-related AEs: Pain in extremity [1, 5]: 1 (2%) n (%)
Muscle-related AEs: Sensation of heaviness [1, 5]: 0 n (%)
Any muscle-related AE [1, 6]: 0 n (%)
Muscle-related AE leading to discontinuation [1, 6]: 0 n (%)
Muscle-related AEs: Muscle spasms [1, 6]: 0 n (%)
Muscle-related AEs: Musculoskeletal pain [1, 6]: 0 n (%)
Muscle-related AEs: Myalgia [1, 6]: 0 n (%)
Myalgia, patients affected ([1]; ETC-1002 180 mg): 1%
Decrease in median CRP from baseline to week 12 endpoint ([2]; ETC-1002 120 mg): 30%
LDL-C reduction from baseline to week 12 ([2]; ETC-1002 120 mg alone): 27%
Percent change from baseline to week 12 in Apolipoprotein A-I ([2]; ETC-1002 120 mg once daily): −0.2 ± 1.1%
Percent change from baseline to week 12 in Apolipoprotein B ([2]; ETC-1002 120 mg once daily): −19.3 ± 1.3 %
Percent change from baseline to week 12 in HDL particle number ([2]; ETC-1002 120 mg once daily): 5.0 ± 1.3%
Percent change from baseline to week 12 in HDL-C ([2]; ETC-1002 120 mg once daily): −5.8 ± 1.4 %
Percent change from baseline to week 12 in LDL particle number ([2]; ETC-1002 120 mg once daily): −21.8 ± 1.7 %
Percent change from baseline to week 12 in LDL-C ([2]; ETC-1002 120 mg once daily): −27.5 ± 1.3 %
Percent change from baseline to week 12 in Non-HDL-C ([2]; ETC-1002 120 mg once daily): −23.2 ± 1.2 %
Percent change from baseline to week 12 in Total cholesterol ([2]; ETC-1002 120 mg once daily): −19.3 ± 0.9 %
Percent change from baseline to week 12 in VLDL particle number ([2]; ETC-1002 120 mg once daily): −2.7 (68.5) %
Decrease in median CRP from baseline to week 12 endpoint ([2]; ETC-1002 180 mg): 40%
LDL-C reduction from baseline to week 12 ([2]; ETC-1002 180 mg alone): 30%
Percent change from baseline to week 12 in Apolipoprotein A-I ([2]; ETC-1002 180 mg once daily): 0.1 ± 1.2%
Percent change from baseline to week 12 in Apolipoprotein B ([2]; ETC-1002 180 mg once daily): −21.3 ± 1.3 %
Percent change from baseline to week 12 in HDL particle number ([2]; ETC-1002 180 mg once daily): 6.2 ± 1.4%
Percent change from baseline to week 12 in HDL-C ([2]; ETC-1002 180 mg once daily): −4.8 ± 1.4 %
Percent change from baseline to week 12 in LDL particle number ([2]; ETC-1002 180 mg once daily): −24.6 ± 1.8 %
Percent change from baseline to week 12 in LDL-C ([2]; ETC-1002 180 mg once daily): −30.1 ± 1.3 %
Percent change from baseline to week 12 in Non-HDL-C ([2]; ETC-1002 180 mg once daily): −25.3 ± 1.1 %
Percent change from baseline to week 12 in Total cholesterol ([2]; ETC-1002 180 mg once daily): −20.7 ± 0.9 %
Percent change from baseline to week 12 in VLDL particle number ([2]; ETC-1002 180 mg once daily): 15.3 (80.5) %
LDL-C reduction from baseline to week 12 ([2]; ETC-1002 alone (120 mg or 180 mg), up to): up to 30%
